According to patent publication US8871716B2, “Use of antimicrobial peptides in regeneration of skin cells” (Korea Advanced Institute of Science and Technology, priority 2010, dated 2014):
Where no end group is shown, it is not given here.

Key:
HaCat = assay: scratched wound-healing assay of skin cell regeneration; assay type: cell-based, human; conditions: 1 μM peptide, 12 hrs incubation
Protocol: To examine whether each of the peptides synthesized in Example 1 can enhance the regeneration of skin cells, a scratched wound-healing assay was used. 900 μL of a suspension containing HaCat at a concentration of 1×10^5 CFU/ml was placed in each well of 12-well plates and incubated for 3 days. […] A clear zone was set at the center of each well of the plate using a yellow tip. After incubation for 12 hrs, a reduced area of the clear zone was measured to determine the effect of each peptide on the regeneration of skin cells (FIG. 2). For a control, no peptides were used.

full-thickness wound = full-thickness wound healing on the back of mice; assay type: in vivo; conditions: 50 μL of 1 μM peptide applied to wound once a day for two days
Protocol: Mice were shaved on the back using an electric razor, followed by forming a full-thickness wound 1.1 cm in diameter using surgical scissors. Application of 50 μL of 1 μM peptide 17 to the wound was continued for 2 days, after which the size of the wound was measured. The wound healing activity of peptide 17 was expressed by the reduced area of the wound (FIG. 3). As the control, the mice were treated with distilled water instead of peptide 17.

human skin cell HaCat = assay: boyden chamber assay of skin cell migration; assay type: cell-based; design: migration of skin cells relative to a control: dose or concentration left out as unconfirmed; conditions: for skin cell migratory activity relative to the control: 1 μM peptide (most effective concentration), HaCat, control: medium without peptide; for migration of skin cells relative to a control: boyden chamber assay
Protocol: To examine whether each of the peptides synthesized in Example 1 could promote the migration of skin cells, a boyden chamber assay was used.
In the chamber of two compartments separated by a microporous membrane, 50 μL of a suspension containing the human skin cell HaCat at a concentration of 5×10^3 CFU/ml was placed in the upper compartment and were allowed to migrate through the pores of the membrane into the lower compartment in which a 0.25˜16 μM dilution of each of the peptides in a skin cell culture medium was present. The cells which migrated into the lower compartment were counted to determine the ability of each of the peptides to promote skin cell […] (FIG. 1). For a control, a skin cell culture medium containing none of the peptides was used.

Row | Sequence | rate of regeneration of skin cells (reduced area of clear zone) versus no peptide (HaCat) [fold] | rate of reduction of wound area versus distilled water control (full-thickness wound) [fold] | skin cell migratory activity relative to the control (human skin cell HaCat) | migration of skin cells relative to a control (human skin cell HaCat)
1 | APKAMKLLKKLLKLQKKGI (APKAMKLLKKLLKLQKKGI-NH2) [Peptide 17] | 2.5 | 7 | about 4.5 times that of the control | 4.5 times higher than a control
2 | APKAMRLLRRLLRLQKKGI (APKAMRLLRRLLRLQKKGI-NH2) [Peptide 26] | 2.5 |  | about 4.5 times that of the control | 4.5 times higher than a control
